Source: paper PMC6369001 (European journal of medicinal chemistry, 2019)
Where a name gives a salt, the structure may show the parent alone.

What was measured:
[1] = tested on: effects of cocaine; settings: cited from earlier work; for Effects against cocaine in behavioral models: rodents, ref 32 (compound 1), ref 34 (compound 2)
[2] = tested on: effects of methamphetamine; settings: mice; ref 33 (compound 1), ref 35 (compound 2, pretreatment); cited from earlier work
[3] = biological target: norepinephrine transporters (Rattus norvegicus, UniProt Q63380); experiment: Norepinephrine transporter binding
norepinephrine transporters, sequence (Q63380 1-617): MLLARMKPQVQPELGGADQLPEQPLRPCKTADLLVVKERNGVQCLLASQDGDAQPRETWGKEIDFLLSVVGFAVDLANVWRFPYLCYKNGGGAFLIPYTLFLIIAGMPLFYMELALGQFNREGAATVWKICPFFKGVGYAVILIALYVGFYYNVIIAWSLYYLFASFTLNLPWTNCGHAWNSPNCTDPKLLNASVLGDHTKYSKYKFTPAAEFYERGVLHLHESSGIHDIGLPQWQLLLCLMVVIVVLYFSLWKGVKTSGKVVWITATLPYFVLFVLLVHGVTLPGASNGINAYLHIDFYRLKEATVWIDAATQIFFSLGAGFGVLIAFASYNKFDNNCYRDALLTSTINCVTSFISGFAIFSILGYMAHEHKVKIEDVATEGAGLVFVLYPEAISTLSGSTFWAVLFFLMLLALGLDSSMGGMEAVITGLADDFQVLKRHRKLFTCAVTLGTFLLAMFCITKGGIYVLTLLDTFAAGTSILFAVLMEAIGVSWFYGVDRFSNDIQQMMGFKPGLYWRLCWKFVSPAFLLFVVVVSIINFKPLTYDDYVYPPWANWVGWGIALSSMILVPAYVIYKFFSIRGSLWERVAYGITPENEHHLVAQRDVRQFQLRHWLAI

[4] = tested on: cocaine-induced convulsions; experiment: In vivo cocaine-induced convulsion studies; settings: mice, 10 mg/kg i.p. pretreatment; P<0.005 vs vehicle, Fisher's exact test
[5] = biological target: T1, σ2R (Rattus norvegicus, UniProt Q5U3Y7); experiment: σ2R radioligand competition binding; settings: selectivity ratio σ1R over σ2R
T1 sequence (Q5U3Y7 1-176): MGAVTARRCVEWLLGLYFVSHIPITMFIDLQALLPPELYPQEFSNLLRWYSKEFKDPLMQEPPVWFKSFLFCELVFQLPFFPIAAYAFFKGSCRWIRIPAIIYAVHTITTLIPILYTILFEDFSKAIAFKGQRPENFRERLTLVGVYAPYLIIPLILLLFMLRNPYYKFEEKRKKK

[6] = biological target: serotonin transporters (Rattus norvegicus, UniProt P31652); experiment: Serotonin transporter binding; settings: ratio of Ki serotonin transporter to Ki σ2R
serotonin transporters, sequence (P31652 whole entry): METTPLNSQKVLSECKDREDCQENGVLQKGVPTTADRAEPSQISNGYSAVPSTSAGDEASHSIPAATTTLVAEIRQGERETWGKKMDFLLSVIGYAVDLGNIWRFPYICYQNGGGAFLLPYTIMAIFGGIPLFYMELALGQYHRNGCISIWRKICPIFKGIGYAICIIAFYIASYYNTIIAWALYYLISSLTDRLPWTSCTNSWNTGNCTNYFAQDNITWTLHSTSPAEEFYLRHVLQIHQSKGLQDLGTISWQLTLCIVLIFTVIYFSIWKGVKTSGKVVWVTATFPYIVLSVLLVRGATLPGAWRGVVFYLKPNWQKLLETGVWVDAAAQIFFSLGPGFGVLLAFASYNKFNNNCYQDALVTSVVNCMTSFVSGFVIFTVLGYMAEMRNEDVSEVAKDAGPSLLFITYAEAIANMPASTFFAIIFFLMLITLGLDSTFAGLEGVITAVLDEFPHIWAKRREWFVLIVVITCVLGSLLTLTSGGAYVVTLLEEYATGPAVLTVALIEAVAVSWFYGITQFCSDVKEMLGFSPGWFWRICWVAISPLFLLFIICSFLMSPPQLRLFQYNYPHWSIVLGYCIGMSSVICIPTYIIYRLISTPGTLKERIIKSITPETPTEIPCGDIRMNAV

[7] = biological target: Serotonin (5-HT2) receptors (Rattus norvegicus, UniProt P14842); experiment: Serotonin; format: binding; settings: ratio of Ki 5-HT2 to Ki σ2R
Serotonin (5-HT2) receptors, sequence (P14842 whole entry): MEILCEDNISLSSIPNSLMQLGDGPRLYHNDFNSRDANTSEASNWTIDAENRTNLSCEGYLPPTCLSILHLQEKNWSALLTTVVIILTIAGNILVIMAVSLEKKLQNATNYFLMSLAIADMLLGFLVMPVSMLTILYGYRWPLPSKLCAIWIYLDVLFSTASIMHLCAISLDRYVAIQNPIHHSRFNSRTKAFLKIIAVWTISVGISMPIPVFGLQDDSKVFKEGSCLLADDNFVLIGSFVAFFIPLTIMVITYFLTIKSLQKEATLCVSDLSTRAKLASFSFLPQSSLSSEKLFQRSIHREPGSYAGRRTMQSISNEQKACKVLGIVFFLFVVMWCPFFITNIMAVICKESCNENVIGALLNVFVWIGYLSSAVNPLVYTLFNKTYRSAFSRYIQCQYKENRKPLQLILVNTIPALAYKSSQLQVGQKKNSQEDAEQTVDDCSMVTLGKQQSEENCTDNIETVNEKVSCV

SMILES | Effects against cocaine in behavioral models [1] | Effects against methamphetamine [2] | Ki [3] [µM] | further results
CC(=O)c1ccc2c(c1)oc(=O)n2CCCCN1CCN(c2ccc(F)cc2)CC1 [Compound 2, 6-acetyl-3-{4-[4-(4-fluorophenyl)piperazin-1-yl]butyl}-2(3H)-benzoxazolone] | reduced the toxic and stimulant effects of cocaine | afforded protection against methamphetamine-induced hyperthermia, and striatal dopaminergic and serotonergic neurotoxicity |  | Sedation and incoordination ([1]; acute treatment): caused sedation and incoordination
S=c1sc2ccccc2n1CCCCN1CCN(C2CCCCC2)CC1 [Compound 1, 3-[4-(4-cyclohexylpiperazin-1-yl)butyl]-2(3H)-benzothiazolethione] | produced both acute and subchronic effects against cocaine | mitigate the effects of methamphetamine |  | 
CCCn1c(=O)n(CCCCN2CCN(c3ccc(F)cc3)CC2)c2ccccc21 [Compound 14] |  |  | > 10 | Protective effect against cocaine-induced convulsions, statistical significance [4]: statistically significant; Ki σ1/ Ki σ2 [5]: > 1000
CCCCCn1c(=O)n(CCCCN2CCN(c3ccc(F)cc3)CC2)c2ccccc21 [Compound 15, 1-{4-[4-(4-fluorophenyl)piperazin-1-yl]butyl}-3-pentyl-1,3-dihydrobenzimidazol-2-one dihydrochloride] |  |  | > 10 | 5-HTT/σ2R selectivity for σ2Rs [6]: 104 fold; 5-HT2/σ2R preference for σ2Rs [7]: 58 fold
